# Values joined by “and” are separate entries in the source; they are usually repeats but may differ in a detail not shown here. Identical values can stand only once.
# Key:
# [1] = system: Apoprotein E deficient mice; assay: Plasma lipoprotein cholesterol by gel electrophoresis (Spife; HDL-C, LDL-C, VLDL-C); format: in vivo
# Text: (§1) Apoprotein E deficient mice (Jackson Laboratories, 600 Main Street, Bar Harbor, Me.) were used in this study. The mice were male, 7-8 weeks of age, and between 18-20 g in weight. An initial total cholesterol measurement was made on 30 mice, and the mice were grouped into two groups of 15 to match the total cholesterol measurements. Both groups were fed a “western diet” (40 kcal % butterfat, 0.15% [wt/wt] cholesterol, Harlan Teklad diet TD-88137). Starting at t=0, the control group of 15 mice received vehicle only (phosphate buffered saline at pH 7.4), while the test group of 15 mice received aromatic-cationic peptide reconstituted in phosphate buffered saline. Body weights of the mice were recorded weekly, and mortality checks were performed daily.
# (§2) The aromatic-cationic peptide D-Arg-2′6′-Dmt-Lys-Phe-NH2 (sterile lyophilized powder, reconstituted in phosphate buffered saline) was tested. For the 12-week study, test mice received a single, daily dose of the peptide, subcutaneously at 1 mg/kg. Control mice received a single daily dose of vehicle.
# (§3) Blood was collected every four weeks (orbital plexis) under isoflurane anesthesia (3%) and blood lipids were determined. Plasma lipid analysis was conducted for both groups at t=0, 4, 6, 8, and 12 weeks. Plasma lipid analysis using an autoanalyzer included total cholesterol (TC), triglycerides (Trigs), phospholipids (PL), free cholesterol (FC), and cholesterol ester (CE, by calculation). Gel electrophoresis was used to measure levels of high-density lipoprotein cholesterol (HDL-C), low-density lipoprotein cholesterol (LDL-C), and very low-density lipoprotein cholesterol (VLDL-C).
# [2] = system: fibroblast cells; assay: Coenzyme Q10 levels in fibroblasts treated with peptide; format: cell-based; conditions: 10 nM peptide for 16-24 hours or 5 days, DMEM, versus saline treated (FIG. 5)
# Protocol: Fibroblasts were treated with an aromatic-cationic peptide of the present disclosure, and levels of coenzyme Q10 were evaluated.
# Fibroblasts were culture by methods known in the art, and treated with the aromatic-cationic peptide D-Arg-2′6′-Dmt-Lys-Phe-NH2 as shown in Table 11 below. Data represents the average n=3-6.
# Coenzyme Q10 levels were evaluated by methods known in the art.
# [3] = system: Apoprotein E deficient mice; assay: Thoracic aorta lipids (Bligh-Dyer extraction, WAKO kits; TC, FC, CE per mg protein); format: in vivo
# Text: as §1, §2
# Following the 12 week treatment, mice were euthanized within 48 hours after the last dose by CO2 asphyxiation and the vascular tree was perfused with 5 mL of phosphate buffered saline (pH 7.4). The aorta and aortic sinus were removed for examination. Thoracic aorta were isolated, trimmed of fat, and fixed in formalin for 48-72 hours before analysis. For en face analysis, aortas were laid out and pinned on black matrix for photography, and stained with Sudan IV. Vessels were imaged for surface involvement using a Nikon computerized image analysis system and the percent of the aortic surface area covered by lipid was calculated. Two determinations were done for each image (Quan 1 and Quan 2), and the average was computed. The data were then computed by group and statistically analyzed. Following staining and morphometric analysis, total lipids were extracted from the aortas using the Bligh-Dyer method. WAKO Diagnostics kits (WAKO Diagnostics, Inc., 1600 Bellwood Road Richmond, Va. 23237-1326) were then used to evaluate total cholesterol, free cholesterol, and cholesterol ester. Cholesterol levels were quantitate nad expressed relative to protein levels. Values are expressed as μg lipid per mg protein (see e.g., FIG. 1).
# [4] = system: Apoprotein E deficient mice; assay: Plasma lipid analysis using an autoanalyzer (TC, Trigs, PL, FC, CE by calculation); format: in vivo; conditions: Week 0 (baseline), group mean of 15 test mice
# Text: as §1, §2, §3
# [5] = Week 0 (baseline), group mean of 15 test mice, vehicle group 25
# [6] = Week 0 (start of treatment, baseline), individual mouse of peptide group (sample 16-30)
# [7] = Week 4, individual test mice (sample # 16-30), listed as aromatic-cationic peptide
# [8] = Week 8, individual test mice (sample # 16-30), listed as aromatic-cationic peptide
# [9] = Week 12, AVE of test mice 16-30
# [10] = Week 12, individual test mice (sample # 16-30), listed as aromatic-cationic peptide
# [11] = treated versus vehicle at 4, 8 and 12 week time points
# [12] = treated versus vehicle, 12 weeks (Table 8, FIG. 2)
# [13] = μg lipid per mg protein, peptide 1 mg/kg s.c. daily, 12 weeks, individual mouse (sample 16-30)
substance,measurement,setting,value
D-Arg-2′6′-Dmt-Lys-Phe-NH2,"Plasma HDL-C, AVE",[1]; [5],28 mg/dL
same,"Plasma VLDL-C, AVE",[1]; [5],26 mg/dL
same,"Plasma LDL-C, AVE","[1]; Week 0 (baseline), group mean of 15 test mice, vehicle group 362",368 mg/dL
same,Plasma HDL-C,[1]; [6],19 mg/dL and 34 mg/dL and 32 mg/dL and 37 mg/dL and 35 mg/dL and 21 mg/dL and 38 mg/dL and 41 mg/dL and 6 mg/dL and 31 mg/dL and 26 mg/dL and 39 mg/dL and 22 mg/dL and 29 mg/dL and 8 mg/dL
same,Plasma LDL-C,[1]; [6],258 mg/dL and 260 mg/dL and 307 mg/dL and 245 mg/dL and 268 mg/dL and 295 mg/dL and 304 mg/dL and 474 mg/dL and 287 mg/dL and 352 mg/dL and 380 mg/dL and 481 mg/dL and 410 mg/dL and 432 mg/dL and 773 mg/dL
same,Plasma VLDL-C,[1]; [6],25 mg/dL (2×) and 23 mg/dL and 37 mg/dL and 20 mg/dL (2×) and 19 mg/dL and 27 mg/dL and 36 mg/dL and 15 mg/dL and 26 mg/dL and 31 mg/dL and 24 mg/dL and 28 mg/dL and 29 mg/dL
same,"HDL-C, Spife (electrophoresis)","[1]; Week 4, AVE of test mice 16-30",25 mg/dL
same,"LDL-C, Spife (electrophoresis)","[1]; Week 4, AVE of test mice 16-30",940 mg/dL
same,"VLDL-C, Spife (electrophoresis)","[1]; Week 4, AVE of test mice 16-30",33 mg/dL
same,"HDL-C, Spife (electrophoresis)",[1]; [7],18 mg/dL and 20 mg/dL (3×) and 0 mg/dL and 13 mg/dL and 7 mg/dL and 23 mg/dL and 32 mg/dL (3×) and 15 mg/dL and 45 mg/dL and 44 mg/dL and 49 mg/dL
same,"LDL-C, Spife (electrophoresis)",[1]; [7],745 mg/dL and 866 mg/dL and 918 mg/dL and 1120 mg/dL and 982 mg/dL and 648 mg/dL and 893 mg/dL and 975 mg/dL and 770 mg/dL and 766 mg/dL and 966 mg/dL and 1147 mg/dL and 874 mg/dL and 1171 mg/dL and 1254 mg/dL
same,"VLDL-C, Spife (electrophoresis)",[1]; [7],35 mg/dL (2×) and 37 mg/dL (2×) and 19 mg/dL and 44 mg/dL (2×) and 18 mg/dL and 23 mg/dL and 39 mg/dL and 41 mg/dL and 28 mg/dL and 31 mg/dL and 30 mg/dL and 32 mg/dL
same,"HDL-C, Spife (electrophoresis)","[1]; Week 8, AVE of test mice 16-30",32 mg/dL
same,"LDL-C, Spife (electrophoresis)","[1]; Week 8, AVE of test mice 16-30",1166 mg/dL
same,"VLDL-C, Spife (electrophoresis)","[1]; Week 8, AVE of test mice 16-30",84 mg/dL
same,"HDL-C, Spife (electrophoresis)",[1]; [8],42 mg/dL and 34 mg/dL and 27 mg/dL and 33 mg/dL and 19 mg/dL (2×) and 8 mg/dL and 45 mg/dL and 16 mg/dL and 32 mg/dL and 41 mg/dL (2×) and 25 mg/dL and 43 mg/dL and 57 mg/dL
same,"LDL-C, Spife (electrophoresis)",[1]; [8],1119 mg/dL and 897 mg/dL and 1392 mg/dL and 1071 mg/dL and 1415 mg/dL and 901 mg/dL and 875 mg/dL and 1378 mg/dL and 922 mg/dL and 856 mg/dL and 1317 mg/dL and 1320 mg/dL and 1025 mg/dL and 1382 mg/dL and 1621 mg/dL
same,"VLDL-C, Spife (electrophoresis)",[1]; [8],101 mg/dL and 73 mg/dL and 86 mg/dL and 79 mg/dL (2×) and 112 mg/dL and 34 mg/dL and 88 mg/dL and 69 mg/dL and 59 mg/dL and 93 mg/dL and 74 mg/dL and 80 mg/dL and 109 mg/dL and 119 mg/dL
same,"HDL-C, Spife (electrophoresis)",[1]; [9],21 mg/dL
same,"LDL-C, Spife (electrophoresis)",[1]; [9],939 mg/dL
same,"VLDL-C, Spife (electrophoresis)",[1]; [9],44 mg/dL
same,"HDL-C, Spife (electrophoresis)",[1]; [10],38 mg/dL and 20 mg/dL (2×) and 10 mg/dL and 41 mg/dL and 21 mg/dL and 5 mg/dL and 31 mg/dL (2×) and 2 mg/dL (2×) and 40 mg/dL and 28 mg/dL and 1 mg/dL and 23 mg/dL
same,"LDL-C, Spife (electrophoresis)",[1]; [10],821 mg/dL and 485 mg/dL and 854 mg/dL and 852 mg/dL and 1328 mg/dL and 693 mg/dL and 611 mg/dL and 692 mg/dL and 962 mg/dL and 896 mg/dL and 1275 mg/dL and 1218 mg/dL and 505 mg/dL and 1203 mg/dL and 1688 mg/dL
same,"VLDL-C, Spife (electrophoresis)",[1]; [10],39 mg/dL and 35 mg/dL and 21 mg/dL (2×) and 43 mg/dL and 71 mg/dL and 32 mg/dL and 33 mg/dL and 26 mg/dL and 63 mg/dL and 76 mg/dL and 36 mg/dL and 30 mg/dL and 83 mg/dL and 46 mg/dL
same,"Plasma LDL-C, in words",[1]; [11],reduces
same,"Plasma VLDL-C, in words",[1]; [11],reduces
same,Coenzyme Q10 levels in fibroblast cells,[2],increased
same,"Thoracic aorta FC (free cholesterol), AVE","[3]; group mean of 15 test mice, 12 weeks, vehicle group 7.5",5.7 µg/mg
same,"Thoracic aorta CE (cholesterol ester), AVE","[3]; group mean of 15 test mice, 12 weeks, vehicle group 22.6",14.6 µg/mg
same,"Thoracic aorta TC (total cholesterol), AVE","[3]; group mean of 15 test mice, 12 weeks, vehicle group 30.1",20.4 µg/mg
same,"Cholesterol esters in the thoracic aorta, in words",[3]; [12],lower
same,"Free cholesterol in the thoracic aorta, in words",[3]; [12],lower
same,"Total cholesterol in the thoracic aorta, in words",[3]; [12],lower
same,Thoracic aorta CE (cholesterol ester),[3]; [13],13.8 μg/mg and 2.7 μg/mg and 30.3 μg/mg and 14.7 μg/mg and 30.7 μg/mg and 14.1 μg/mg and 4.6 μg/mg (2×) and 5.6 μg/mg (2×) and 28.5 μg/mg and 21.3 μg/mg and 18.6 μg/mg and 11.4 μg/mg and 13.0 μg/mg
same,Thoracic aorta FC (free cholesterol),[3]; [13],7.6 μg/mg (2×) and 4.0 μg/mg and 5.1 μg/mg and 3.0 μg/mg (2×) and 8.1 μg/mg and 2.7 μg/mg and 3.5 μg/mg and 14.6 μg/mg and 6.6 μg/mg and 3.8 μg/mg and 3.6 μg/mg and 3.3 μg/mg and 9.5 μg/mg
same,Thoracic aorta TC (total cholesterol),[3]; [13],21.4 µg/mg and 6.7 µg/mg and 35.4 µg/mg and 17.7 µg/mg and 38.8 µg/mg and 16.8 µg/mg and 8.1 µg/mg and 20.1 µg/mg and 35.1 µg/mg and 9.4 µg/mg and 24.9 µg/mg and 21.7 µg/mg and 7.9 µg/mg and 19.0 µg/mg and 22.5 µg/mg
same,"Plasma FC (free cholesterol), AVE",[4]; vehicle group 136,142
same,"Plasma Trigs (triglycerides), AVE",[4]; vehicle group 141,140
same,"Plasma CE (cholesterol ester, by calculation), AVE",[4]; vehicle group 275,280
same,"Plasma PL (phospholipids), AVE",[4]; vehicle group 297,309

# From patent publication US10201585B2, “Methods for treatment of atherosclerosis” (Stealth Peptides International, Inc., priority 2012, dated 2019)
